Where “and” joins values, the source holds several entries; their conditions need not be identical. Equal entries are not always repeated. Where two headings read alike, the source gives them in different places.
Tested on: SARS-CoV-2 (Omicron variant, B.1.1.529/BA.2 sublineage)
Assay: microbe, parasite or virus in culture
Format: cell-based
Conditions: for EC50 / EC90: Severe acute respiratory syndrome coronavirus 2, Vero C1008, 48 h; for EC90: read-out: 90% Reduction in Infectious Virus (EC90); for time to maximal effectiveness against the Omicron variant particles: after starting administration and treatment
[1] = read-out: 50% Reduction in Infectious Virus (EC50)
[2] = read-out: 50% Reduction in Viral RNA Copy (EC50)

Structure (SMILES) | 100% CPE Inhibitory Concentration (CPEIC100) | EC50 [1] | EC50 [2] | EC90 | time to maximal effectiveness against the Omicron variant particles | 100% CPE Inhibitory Concentration (CPEIC100) (listed as forodesine)
O=c1[nH]cnc2c([C@@H]3N[C@H](CO)[C@@H](O)[C@H]3O)c[nH]c12 [Forodesine, forodesine] | 1.69 ± 0.06 µM | ~700 nM | 730 ± 40 nM | 2200 ± 60 nM | 4 to 10 h | 1.69 µM
CC(C)Nc1nc2cc(Cl)c(Cl)cc2n1[C@H]1O[C@@H](CO)[C@H](O)[C@@H]1O [Maribavir, maribavir] | 7.97 ± 0.27 µM | 3050 ± 130 nM | 3200 ± 140 nM | 12300 ± 330 nM |  | 
CC(C)C(=O)OC[C@H]1O[C@@H](n2ccc(NO)nc2=O)[C@H](O)[C@@H]1O [Molnupiravir, molnupiravir] | 6.28 µM and 6.28 ± 0.28 µM | 2610 ± 100 nM | 2730 ± 110 nM | 9100 ± 310 nM |  | 
COc1nc(N)nc2c1ncn2[C@@H]1O[C@H](CO)[C@@H](O)[C@@H]1O [Nelarabine, nelarabine] |  | 1680 ± 80 nM | 1750 ± 80 nM | 6460 ± 180 nM |  | 
CCC(CC)COC(=O)[C@H](C)N[P@](=O)(OC[C@H]1O[C@@](C#N)(c2ccc3c(N)ncnn23)[C@H](O)[C@@H]1O)Oc1ccccc1 [Remdesivir, remdesivir] | 5.99 µM and 5.99 ± 0.20 µM | 2070 ± 80 nM |  | 8010 ± 290 nM |  | 
CC(C)=CCNc1ncnc2c1ncn2[C@@H]1O[C@H](CO)[C@@H](O)[C@H]1O [Riboprine, N^6-(2-Isopentenyl)adenosine] | 1.21 µM and 1.21 ± 0.04 µM | ~450 nM | 480 ± 30 nM | 1710 ± 50 nM | 4 to 10 h | 
OC[C@H]1O[C@@H](n2cnc3c(N[C@@H]4CCOC4)ncnc32)[C@H](O)[C@@H]1O [Tecadenoson, tecadenoson] | 7.73 ± 0.23 µM | 2900 ± 100 nM | 2950 ± 110 nM | 11900 ± 320 nM |  | 
Nc1ncnc2c1ncn2[C@@H]1O[C@H](CO)[C@@H](O)[C@@H]1O [Vidarabine, Arabinosyladenine] | 8.10 ± 0.25 µM | 3200 ± 130 nM | 3230 ± 130 nM | 12600 ± 350 nM |  | 
